Test results: the OligoGym collection
Several values for one entry are separate records, joined by “and”; a condition that tells them apart may be missing. Identical values can stand only once. After the bases stand the sugars from the 5' end (letter, count) and the backbone: PS all phosphorothioate, else s phosphorothioate and o phosphodiester by linkage. Methylation of C is not given here. e = 2'-O-(2-methoxyethyl) (MOE); k = constrained ethyl (cEt); d = 2'-deoxy (DNA)

Target: IRF4
Settings: ASO

Sequence	target mRNA inhibition (MM.1R, 1 µM)	target mRNA inhibition (SK-MEL-28, 4 µM) [%]	also measured
TGCTCACTAAGCTTGA (sugars k3 d10 k3, PS)	12%		
TGCTGAACCCCACAGG (sugars k3 d10 k3, PS)		33	
TGCTTGAGGTTTTCCT (sugars kkkdddddddddkeke, PS)	35%		
TGGAAACCAGCCCTTG (sugars k3 d10 k3, PS)		48	
TGGAAACGAGAACGCA (sugars k3 d10 k3, PS)	-7%		
TGGAATCTTGGCAGGG (sugars k3 d10 k3, PS)		40	
TGGAGAAACGAGCCAG (sugars k3 d10 k3, PS)		38	
TGGCAACCATTTTCAC (sugars k4 d8 k4, PS)		7	
TGGCACAATTCTCTGA (sugars k3 d10 k3, PS)		13	
TGGCACAGACATACCT (sugars k3 d10 k3, PS)		38	
TGGCAGGGAGCGGCCG (sugars k3 d10 k3, PS)		11	
TGGCCCTTCTCTCACG (sugars k3 d10 k3, PS)		11	
TGGCGAGTGGCGGGTA (sugars k3 d10 k3, PS)	-18%		
TGGCTCATGGACATCT (sugars k3 d10 k3, PS)		32	
TGGCTGATAATTAATC (sugars k3 d10 k3, PS)	-5%		
TGGGAATCCTTAATTA (sugars k3 d10 k3, PS)		12	
TGGGACATTGGTACGG (sugars k3 d10 k3, PS)		69	target mRNA inhibition (MM.1R, 0.074 µM): 4%; target mRNA inhibition (MM.1R, 0.222 µM): 2%; target mRNA inhibition (MM.1R, 0.666 µM): 13%; target mRNA inhibition (MM.1R, 2 µM): 34%
TGGGAGTAATAGTAAA (sugars k3 d10 k3, PS)		16	
TGGGATTATATACTGG (sugars kdddddddddkekeke, PS)	40%		
TGGGATTATATACTGG (sugars kkdddddddddekeke, PS)	63%		
TGGGATTATATACTGG (sugars kkdddddddddkdkdk, PS)	25%		
TGGGATTATATACTGG (sugars kkdddddddddkekek, PS)	42%		
TGGGTACATGGCAGTG (sugars k3 d10 k3, PS)		74	
TGGTAACAATACTGTA (sugars k3 d10 k3, PS)		65	
TGGTAGAATGTGATAT (sugars k3 d10 k3, PS)		43	
TGGTAGGTAGGCACCT (sugars k3 d10 k3, PS)		35	

Sequence	target mRNA inhibition (MM.1R, 1 µM)	target mRNA inhibition (SK-MEL-28, 4 µM) [%]	also measured
TGGTATTTTTCCGTTC (sugars k3 d10 k3, PS)	39%	69	target mRNA inhibition (MM.1R, 0.0625 µM): 6%; target mRNA inhibition (MM.1R, 0.074 µM): 13%; target mRNA inhibition (MM.1R, 0.222 µM): 6%; target mRNA inhibition (MM.1R, 0.25 µM): 20%; target mRNA inhibition (MM.1R, 0.666 µM): 24%; target mRNA inhibition (MM.1R, 2 µM): 51%; target mRNA inhibition (MM.1R, 4 µM): 73%
TGGTGGGTCCTGGCAG (sugars k3 d10 k3, PS)		23	
TGGTTGGCTGGTCTTT (sugars k3 d10 k3, PS)	88% and 69%		target mRNA inhibition (MM.1R, 0.0625 µM): 6%; target mRNA inhibition (MM.1R, 0.25 µM): 40%; target mRNA inhibition (MM.1R, 4 µM): 89%
TGGTTGGCTGGTCTTT (sugars kddddddddddkekek, PS)	9%		
TGTAAATGAGTCGGTC (sugars k3 d10 k3, PS)		69	
TGTACAGGACAGGTAA (sugars k3 d10 k3, PS)	8%		
TGTAGGGCGACTAACT (sugars k3 d10 k3, PS)		21	
TGTAGTATGAGAAACG (sugars e1 k2 d9 k2 e2, PS)	6%		
TGTAGTATGAGAAACG (sugars k3 d9 k3 e1, PS)	33%		
TGTAGTATGAGAAACG (sugars kkdddddddddkdkdk, PS)	-6%		
TGTATACATCACTGCA (sugars k3 d10 k3, PS)		63	
TGTATAGTTCTCAACC (sugars k3 d10 k3, PS)		43	
TGTATTACTCTTAGGC (sugars k3 d10 k3, PS)	65% and 41%		target mRNA inhibition (MM.1R, 0.0625 µM): 7%; target mRNA inhibition (MM.1R, 0.25 µM): 21%; target mRNA inhibition (MM.1R, 4 µM): 68%
TGTATTTATGCCCTCG (sugars k3 d10 k3, PS)		44	
TGTCCAGCTGGCTCCG (sugars k3 d10 k3, PS)		39	
TGTCGATGCCTTCTCG (sugars k3 d10 k3, PS)		28	
TGTGAACCTGCTGGGC (sugars k3 d10 k3, PS)		2	
TGTGACATAAAGGACC (sugars k3 d10 k3, PS)		27	
TGTGATAGCTGAGCTG (sugars k2 d9 e3 k2, PS)	12%		
TGTGATAGCTGAGCTG (sugars k3 d10 k3, PS)	47%		
TGTGATAGCTGAGCTG (sugars kddddddddddkekek, PS)	-2%		
TGTGCTTGCCAAGCCT (sugars k2 d9 e3 k2, PS)	45% and 40%		
TGTGCTTGCCAAGCCT (sugars k3 d10 k3, PS)	38% and 49%		
TGTGCTTGCCAAGCCT (sugars kkdddddddddekeke, PS)	21% and 1%		
TGTGGTTTCACATGAT (sugars k3 d10 k3, PS)	21%		
TGTGTCAAAGAGCTTG (sugars k3 d10 k3, PS)		22	

Sequence	target mRNA inhibition (MM.1R, 1 µM)	target mRNA inhibition (SK-MEL-28, 4 µM) [%]	also measured
TGTTACCGATGCTTCA (sugars kdddddddddkekeke, PS)	10% and 13%		
TGTTAGCTACAAAGAG (sugars k3 d10 k3, PS)		47	
TGTTAGGTGACCCAAA (sugars k3 d10 k3, PS)	2%		
TGTTCAGAAACCCTCA (sugars k3 d10 k3, PS)	-15%		
TGTTTTAAGAGGCGAC (sugars k3 d10 k3, PS)	3%		
TTAAAATATCGCCCAT (sugars k3 d10 k3, PS)		32	
TTAAACAGCACTCAGA (sugars k3 d10 k3, PS)		33	
TTAAAGGGTAAGCACT (sugars k3 d10 k3, PS)	-18%		
TTAAATAAGATCCCAC (sugars k3 d10 k3, PS)		23	
TTAACCATTACTTAGA (sugars k3 d10 k3, PS)		45	
TTAAGCTAAACTCCTA (sugars k3 d10 k3, PS)		10	
TTACCATTTTCACAAG (sugars k3 d10 k3, PS)		8	
TTACCGATGCTTCAAG (sugars k3 d10 k3, PS)	16% and 19%		
TTACTAATTCCATAGA (sugars k3 d10 k3, PS)	3%		
TTAGAAAGCCCTCACC (sugars k3 d10 k3, PS)		-16	
TTAGAGAGGAGAATTT (sugars k3 d10 k3, PS)		35	
TTAGCAATTCCTGTTG (sugars k3 d10 k3, PS)		20	
TTAGGATAATATACCC (sugars k3 d10 k3, PS)		52	
TTAGGCACATCAATGT (sugars k3 d10 k3, PS)	12% and 17%		
TTATATACTGGTTGGT (sugars k2 d9 e3 k2, PS)	40%		
TTATATACTGGTTGGT (sugars kdddddddddkekeke, PS)	20%		
TTATGTTAGCCAATTC (sugars k2 d9 e3 k2, PS)	14% and 9%		
TTATGTTAGCCAATTC (sugars k3 d10 k3, PS)	9% and 22%		
TTCAACACACTGTCTG (sugars k3 d10 k3, PS)		-31	
TTCAACTTGTGACCCA (sugars k3 d10 k3, PS)		49	
TTCAAGAGGAACTAGT (sugars k3 d10 k3, PS)		6	

Sequence	target mRNA inhibition (MM.1R, 1 µM)	target mRNA inhibition (SK-MEL-28, 4 µM) [%]	also measured
TTCAGTGCTCACTGCT (sugars k3 d10 k3, PS)		69	
TTCATGTAAAGTCTGC (sugars kddddddddddkekek, PS)	2% and -18%		
TTCATGTAAAGTCTGC (sugars kkdddddddddkekek, PS)	10% and 12%		
TTCATTAGAAAGCCCT (sugars k3 d10 k3, PS)	-22%		
TTCCAGCTTAGTCACC (sugars k3 d10 k3, PS)		37	
TTCCAGGTCATTTGAC (sugars k3 d10 k3, PS)		66	target mRNA inhibition (MM.1R, 0.074 µM): 2%; target mRNA inhibition (MM.1R, 0.222 µM): 3%; target mRNA inhibition (MM.1R, 0.666 µM): 9%; target mRNA inhibition (MM.1R, 2 µM): 27%
TTCCATTGGAGGAGGG (sugars k3 d10 k3, PS)		28	
TTCTAGTCGCGCAAGT (sugars k3 d10 k3, PS)	-7%		
TTGATGTGATAGCTGA (sugars kkdddddddddkdkdk, PS)	36%		
TTGCAAGCTATATTAA (sugars k3 d10 k3, PS)		34	
TTGCATAGGCATCCTT (sugars k3 d10 k3, PS)		47	
TTGCATCTATAAGATG (sugars k3 d10 k3, PS)		31	
TTGCATGGCTAATGAA (sugars k3 d10 k3, PS)		42	
TTGGCTCCTTTTTTGG (sugars k3 d10 k3, PS)		13	
TTGGTTGGCTGGTCTT (sugars k2 d9 e3 k2, PS)	50%		
TTGGTTGGCTGGTCTT (sugars kddddddddddkekek, PS)	34%		
TTGGTTGGCTGGTCTT (sugars kkdddddddddkekek, PS)	65%		
TTGTACAGGACAGGTA (sugars k3 d10 k3, PS)		28	
TTGTTCCACCCCTGGG (sugars k3 d10 k3, PS)		47	
TTGTTTGCAAGCTATA (sugars k3 d10 k3, PS)	36%		
TTTAAGAGGCGACTGC (sugars k3 d10 k3, PS)	-100%		
TTTAAGGCCCTGTCAA (sugars k3 d10 k3, PS)		-17	
TTTACACTGGATCTGA (sugars k3 d10 k3, PS)		25	
